Assay results: patent US10138255B2, “Piperazine derivatives as HIV protease inhibitors” (Merck Sharp & Dohme Corp., priority 2014, dated 2018)

tested on: HIV-1 (H9IIIB strain); assay: Cell-Based HIV Infection Assay Using a Reporter (MT4-GFP cells); details: Human immunodeficiency virus 1, inflection point (IP) of viral growth inhibition; MT4-GFP cells infected with HIV-1 H9IIIB; 50% normal human serum; mean of at least two independent experiments; read-out: Cell Based IP (50% NHS)
Summary of the method: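 Inflection point from a 4-parameter curve of % viral growth inhibition, normalised to DMSO and triple-drug controls, using the 48 h/24 h ratio of GFP-positive cells (R0). MT4-GFP cells pre-infected 24 h with HIV-1 H9IIIB at low MOI; compounds tested in 50% normal human serum, 0.4% DMSO; mean of ≥2 experiments.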

Structure (SMILES)	EC50 [nM]
N[C@H](C(=O)Nc1cncc(F)c1CC[C@H]1CN[C@@H]2CCCS(=O)(=O)N1C2)[C@H](c1cncc(F)c1)c1ccc(Cl)c(F)c1 [Example 234, (βS)-4-chloro-N-(4-{2-[(6R,9S)-2,2-dioxido-2-thia-1,7-diazabicyclo[4.3.1]dec-9-yl]ethyl}-5-fluoropyridin-3-yl)-3-fluoro-β-(5-fluoropyridin-3-yl)-L-phenylalaninamide]	50
Cn1nc([C@H](c2ccc(Cl)c(F)c2)[C@H](N)C(=O)Nc2cncc(F)c2CC[C@H]2CN[C@@H]3CCCS(=O)(=O)N2C3)cc1C(F)(F)F [Example 266, (βR)-4-chloro-N-(4-{2-[(6R,9S)-2,2-dioxido-2-thia-1,7-diazabicyclo[4.3.1]dec-9-yl]ethyl}-5-fluoropyridin-3-yl)-3-fluoro-β-[1-methyl-5-(trifluoromethyl)-1H-pyrazol-3-yl]-L-phenylalaninamide]	11
COC(=O)N[C@H](C(=O)Nc1cncc(F)c1CC[C@H]1CN[C@@H]2CCCS(=O)(=O)N1C2)[C@@H](c1ccc(Cl)cc1)C1CCOCC1 [Example 174, methyl [(1S,2R)-2-(4-chlorophenyl)-1-[(4-{2-[(6R,9S)-2,2-dioxido-2-thia-1,7-diazabicyclo[4.3.1]dec-9-yl]ethyl}-5-fluoropyridin-3-yl)carbamoyl]-2-(tetrahydro-2H-pyran-4-yl)ethyl]carbamate]	89
COC(=O)N[C@H](C(=O)N[C@H]1CCCC[C@@H]1CC[C@H]1CN[C@@H]2CCCS(=O)(=O)N1C2)[C@@H](c1ccc(Cl)cc1)c1ccc(OC)nc1 [Example 98, methyl [(1S,2S)-2-(4-chlorophenyl)-1-{[(1S,2R)-2-{2-[(6R,9S)-2,2-dioxido-2-thia-1,7-diazabicyclo[4.3.1]dec-9-yl]ethyl}cyclohexyl]carbamoyl}-2-(6-methoxypyridin-3-yl)ethyl]carbamate]	47
COC(=O)N[C@H](C(=O)Nc1cccc(F)c1CCC1CNC2CCCS(=O)(=O)N1C2)C(c1ccc(OC)nc1)c1ccc(F)c(F)c1 (stereo in doubt) [Example 68, methyl [(1S,2R)-2-(3,4-difluorophenyl)-1-({2-[2-(2,2-dioxido-2-thia-1,7-diazabicyclo[4.3.1]dec-9-yl)ethyl]-3-fluorophenyl}carbamoyl)-2-(6-methoxypyridin-3-yl)ethyl]carbamate]	12
COC(=O)N[C@H](C(=O)Nc1cccc(F)c1CC[C@H]1CN[C@@H]2CCC(C)(C)S(=O)(=O)N1C2)[C@@H](c1ccc(F)cc1)[C@H]1C[C@@H](C)O[C@@H](C)C1 [Example 102, methyl {(1S)-2-[(2-{2-[(6R,9S)-3,3-dimethyl-2,2-dioxido-2-thia-1,7-diazabicyclo[4.3.1]dec-9-yl]ethyl}-3-fluorophenyl)amino]-1-[(R)-[(2R,4r,6S)-2,6-dimethyltetrahydro-2H-pyran-4-yl](4-fluorophenyl)methyl]-2-oxoethyl}carbamate]	32
COC(=O)N[C@H](C(=O)N[C@H]1CCCC[C@@H]1CC[C@H]1CN[C@@H]2CCCS(=O)(=O)N1C2)[C@@]1(c2ccc(Cl)cc2)C[C@@H](C)O[C@@H](C)C1 [Example 169, methyl [(1S)-1-[(2R,4r,6S)-4-(4-chlorophenyl)-2.6-dimethyltetrahydro-2H-pyran-4-yl]-2-{[(1S,2R)-2-{2-[(6R,9S)-2,2-dioxido-2-thia-1,7-diazabicyclo[4.3.1]dec-9-yl]ethyl}cyclohexyl]amino}-2-oxoethyl]carbamate]	89
COC(=O)N[C@H](C(=O)Nc1cccc(F)c1CCC1CNC2CCCS(=O)(=O)N1C2)[C@@H](c1ccc(F)cc1)c1ccc2c(c1)CCC2 (stereo partly drawn) [Example 34, Methyl [(1S,2S)-2-(2,3-dihydro-1H-inden-5-yl)-1-({2-[2-(2,2-dioxido-2-thia-1,7-diazabicyclo[4.3.1]dec-9-yl)ethyl]-3-fluorophenyl}carbamoyl)-2-(4-fluorophenyl)ethyl]carbamate]	23
N[C@H](C(=O)Nc1cccc(F)c1CC[C@H]1CN[C@@H]2CCCS(=O)(=O)N1C2)[C@H](c1cnc(C(F)(F)F)nc1)c1ccc(Cl)c(F)c1 [Example 249, (βS)-4-chloro-N-(2-{2-[(6R,9S)-2,2-dioxido-2-thia-1,7-diazabicyclo[4.3.1]dec-9-yl]ethyl}-3-fluorophenyl)-3-fluoro-β-[2-(trifluoromethyl)pyrimidin-5-yl]-L-phenylalaninamide]	5.1
CO[C@H]1CC[C@H]([C@H](c2ccc(F)cc2)[C@H](N)C(=O)Nc2cncc(F)c2CC[C@H]2CN[C@@H]3CCCS(=O)(=O)N2C3)CC1 [Example 27, (2S,3R)-2-Amino-N-(4-(2-((6R,9S)-2,2-dioxido-2-thia-1,7-diazabicyclo[4.3.1]decan-9-yl)ethyl)-5-fluoropyridin-3-yl)-3-(4-fluorophenyl)-3-((1r,4R)-4-methoxycyclohexyl)propanamide]	7.5
COC(=O)N[C@H](C(=O)Nc1cccc(F)c1OCC1CNC2CCCS(=O)(=O)N1C2)[C@@H](c1ccc(F)cc1)c1cc(F)cc(F)c1 (stereo partly drawn) [Example 85, methyl [(1S,2S)-2-(3,5-difluorophenyl)-1-({2-[(2,2-dioxido-2-thia-1,7-diazabicyclo[4.3.1]dec-9-yl)methoxy]-3-fluorophenyl}carbamoyl)-2-(4-fluorophenyl)ethyl]carbamate]	150
CCO[C@H]1CC[C@H]([C@H](c2ccc(Cl)c(F)c2)[C@H](N)C(=O)Nc2cncc(F)c2CC[C@H]2CN[C@@H]3CCCS(=O)(=O)N2C3)CC1 [Example 253, (βR)-4-chloro-N-(4-{2-[(6R,9S)-2,2-dioxido-2-thia-1,7-diazabicyclo[4.3.1]dec-9-yl]ethyl}-5-fluoropyridin-3-yl)-β-[(1r,4R)-4-ethoxycyclohexyl]-3-fluoro-L-phenylalaninamide]	5.8
CS(=O)(=O)N1CCC([C@H](c2ccc(F)cc2)[C@H](N)C(=O)Nc2cccc(F)c2CC[C@H]2CN[C@@H]3CCCS(=O)(=O)N2C3)CC1 [Example 186, (βR)-N-(2-{2-[(6R,9S)-2,2-dioxido-2-thia-1,7-diazabicyclo[4.3.1]dec-9-yl]ethyl}-3-fluorophenyl)-4-fluoro-β-[1-(methylsulfonyl)piperidin-4-yl]-L-phenylalaninamide]	33
CC1CC[C@@H]2CN([C@@H](CCc3c(F)cccc3NC(=O)[C@@H](N)[C@@H](c3ccc(F)cc3)C3C[C@@H](C)O[C@@H](C)C3)CN2)S1(=O)=O (stereo partly drawn) [Example 110, (βR)-β-[(2R,6S)-2,6-dimethyltetrahydro-2H-pyran-4-yl]-4-fluoro-N-(3-fluoro-2-{2-[(6R,9S)-3-methyl-2,2-dioxido-2-thia-1,7-diazabicyclo[4.3.1]dec-9-yl]ethyl}phenyl)-L-phenylalaninamide]	55
C[C@@H]1CC([C@H](c2ccc(Cl)cc2)[C@H](N)C(=O)N[C@H]2CCC[C@@H]2CC[C@H]2CN[C@@H]3CCCS(=O)(=O)N2C3)C[C@H](C)O1 (stereo partly drawn) [Example 196, (βR)-4-chloro-β-[(2R,4s,6S)-2,6-dimethyltetrahydro-2H-pyran-4-yl]-N-[(1S,2R)-2-{2-[(6R,9S)-2,2-dioxido-2-thia-1,7-diazabicyclo[4.3.1]dec-9-yl]ethyl}cyclopentyl]-L-phenylalaninamide]	120
COc1ccc([C@H](c2ccc(Cl)cc2)[C@H](N)C(=O)Nc2cccc(F)c2CCC2CNC3CCCS(=O)(=O)N2C3)cn1 (stereo partly drawn) [Example 45, (βS)-4-chloro-N-{2-[2-(2,2-dioxido-2-thia-1,7-diazabicyclo[4.3.1]dec-9-yl)ethyl]-3-fluorophenyl}-β-(6-methoxypyridin-3-yl)-L-phenylalaninamide]	3.8
